In this experiment the test system is SPI1 gene. Briefly: qRT-PCR of SPI1 gene expression on adding doxycycline (PU protocol). It counts as cell-based, human. On the procedure: The expression level at the transcription level can be evaluated through, for example, quantitative reverse transcription PCR (qRT-PCR) using one obtained by reverse-transcribing mRNA prepared from target cells as a template.
In the PU protocol, doxycycline (1 μg/mL) was added to the culture liquid from day 6 to day 18 from the start of culture.
By adding doxycycline, the expression level of the SPI1 gene evaluated through qRT-PCR increased by at least about 50 times compared to a case without doxycycline.
(In general: Quantitative PCR measures a nucleic acid by following its amplification.)

`C[C@H]1c2cccc(O)c2C(=O)C2=C(O)[C@]3(O)C(=O)C(C(N)=O)=C(O)[C@@H](N(C)C)[C@@H]3[C@@H](O)[C@@H]21` [doxycycline]: the “expression level of the SPI1 gene evaluated through qRT-PCR, increase compared to a case without doxycycline” value (doxycycline 1 μg/mL in culture liquid from day 6 to day 18, SPI1-introduced hiPSC-derived cells) was “at least 50 times”. Also, the “expression level of the SPI1 gene with a primer set that selectively amplifies endogenous SPI1 gene” value (regardless of the presence or absence of doxycycline, endogenous SPI1 only) is given as 1-2 times.
